Laboratory results: patent US20090312282A1, “Novel Low Molecular Weight Hyaluronic Acid and/or Salt Thereof, and Cosmetic Preparation, Pharmaceutical Composition, and Food Composition Each Using Same” (Q. P. Corporation, priority 2006, published 2009)

Test system: hairless mice (Hos: HR-1)
Details: mouse, in vivo
Source text: In this test example, the low-molecular-weight hyaluronic acid according to the invention was percutaneously administered to a mouse to evaluate the percutaneous absorbability of the low-molecular-weight hyaluronic acid. Six-week-old (when the test was started) male hairless mice (Hos: HR-1) (purchased from Japan SLC Inc.) […] Specifically, the hyaluronic acid was labeled with a fluorescent substance by allowing a carboxylic acid group of the hyaluronic acid to react with DMEQ-hydrazide. […] The HPLC analysis conditions were as follows. • Analyzer: Waters 2690 470 • Column: Shodex suger KS807 (gel filtration column) • Column temperature: 40° C. • Flow rate: 0.5 mL/min • Injection amount: 20 microliters • Mobile phase: 0.003 mol/L phosphoric acid buffer containing 0.15 mol/L sodium chloride • Fluorescence analysis conditions: excitation wavelength: 365 nm, fluorescence wavelength: 447 nm […] It is considered that the peak was also detected in the test group 3 due to a fluorescent substance (e.g., vitamin, aromatic amino acid, and cholesterol) originally contained in the living body. […] The STD solution was analyzed by HPLC to determine the peak area.

Substance | amount of percutaneous absorption of hyaluronic acid (increase in hyaluronic acid per g of skin) | fluorescence intensity (peak) in the skin compared with control group (test group 3)
low-molecular-weight hyaluronic acid [Example 2] | increased with time when the sample attachment time was 1 to 3 hours, and almost reached equilibrium when the sample attachment time was 3 to 5 hours | 
hyaluronic acid [Sample 2] |  | no significant difference
